Active and inactive are the calls of the source.
Key:
[1] = target: T1, Replicative DNA helicase DnaB (Mycobacterium tuberculosis, UniProt P9WMR3); experiment: DnaB intein splicing inhibitors, dose response, biochemical, cell-free fluorescence (AID 449749); assay type: functional
T1 sequence (P9WMR3 whole entry): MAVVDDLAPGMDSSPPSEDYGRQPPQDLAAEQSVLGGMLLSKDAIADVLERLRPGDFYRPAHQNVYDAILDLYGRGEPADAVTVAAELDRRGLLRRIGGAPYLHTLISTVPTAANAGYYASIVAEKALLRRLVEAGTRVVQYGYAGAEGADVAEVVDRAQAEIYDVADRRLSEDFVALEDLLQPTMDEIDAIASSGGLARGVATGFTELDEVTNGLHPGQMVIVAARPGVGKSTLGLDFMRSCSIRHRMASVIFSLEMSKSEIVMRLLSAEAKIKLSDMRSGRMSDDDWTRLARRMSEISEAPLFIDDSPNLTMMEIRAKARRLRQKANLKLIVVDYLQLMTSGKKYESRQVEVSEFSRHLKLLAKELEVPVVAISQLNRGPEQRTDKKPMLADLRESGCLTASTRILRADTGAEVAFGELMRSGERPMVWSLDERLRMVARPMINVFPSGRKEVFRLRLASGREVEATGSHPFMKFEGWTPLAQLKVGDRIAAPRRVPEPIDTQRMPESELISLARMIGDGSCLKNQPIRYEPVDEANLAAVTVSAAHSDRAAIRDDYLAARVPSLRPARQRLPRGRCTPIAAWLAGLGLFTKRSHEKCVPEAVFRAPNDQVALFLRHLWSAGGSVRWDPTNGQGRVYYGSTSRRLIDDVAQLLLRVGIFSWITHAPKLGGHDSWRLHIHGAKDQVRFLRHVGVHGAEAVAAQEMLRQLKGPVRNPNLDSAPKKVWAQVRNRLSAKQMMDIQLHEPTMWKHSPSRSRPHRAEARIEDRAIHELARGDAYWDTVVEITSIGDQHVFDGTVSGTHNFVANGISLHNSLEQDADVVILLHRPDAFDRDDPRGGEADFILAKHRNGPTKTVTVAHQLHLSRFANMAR

[2] = target: T2, Microphthalmia-associated transcription factor (Homo sapiens, UniProt O75030); experiment: TRPM1 promoter luciferase signal decrease, dose response, MITF inhibitor project, cell-based, SK-MEL-5, cherry-picked, set 3 (AID 493073); assay type: functional
T2 sequence (O75030 whole entry): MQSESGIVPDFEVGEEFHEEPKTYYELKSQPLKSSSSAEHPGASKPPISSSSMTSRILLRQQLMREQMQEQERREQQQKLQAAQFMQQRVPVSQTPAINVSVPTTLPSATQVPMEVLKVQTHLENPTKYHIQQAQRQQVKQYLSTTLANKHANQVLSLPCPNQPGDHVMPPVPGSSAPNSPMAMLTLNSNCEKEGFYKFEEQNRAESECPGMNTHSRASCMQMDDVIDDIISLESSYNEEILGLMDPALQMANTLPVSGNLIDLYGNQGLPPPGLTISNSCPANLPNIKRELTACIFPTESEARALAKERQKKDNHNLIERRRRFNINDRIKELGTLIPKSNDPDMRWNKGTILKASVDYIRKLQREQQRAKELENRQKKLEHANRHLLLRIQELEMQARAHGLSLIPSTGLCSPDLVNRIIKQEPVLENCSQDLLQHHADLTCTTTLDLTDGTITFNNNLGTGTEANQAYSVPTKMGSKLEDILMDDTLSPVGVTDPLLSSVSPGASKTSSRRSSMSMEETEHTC

[3] = target: G-protein coupled receptor 55 (Homo sapiens, UniProt Q9Y2T6); experiment: GPR55 agonists via beta-arrestin recruitment, primary screen, imaging, U2OS cells, beta-arrestin-GFP redistribution (AID 1961); assay type: functional
G-protein coupled receptor 55, sequence (Q9Y2T6 whole entry): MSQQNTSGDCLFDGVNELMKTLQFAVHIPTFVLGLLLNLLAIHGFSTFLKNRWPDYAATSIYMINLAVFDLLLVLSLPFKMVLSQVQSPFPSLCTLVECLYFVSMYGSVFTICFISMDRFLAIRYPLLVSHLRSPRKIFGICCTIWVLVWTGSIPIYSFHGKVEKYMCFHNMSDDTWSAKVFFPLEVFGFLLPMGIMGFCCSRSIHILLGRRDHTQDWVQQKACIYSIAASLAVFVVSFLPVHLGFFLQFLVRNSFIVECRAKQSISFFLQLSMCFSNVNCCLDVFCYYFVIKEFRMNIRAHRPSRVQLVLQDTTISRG

[4] = target: T3, Protein RecA (Mycobacterium tuberculosis, UniProt P9WHJ3); experiment: Fluorescence Cell-Free Homogeneous Dose Retest to Identify Inhibitors of RecA-Intein Splicing Activity. [Related pubchem assays (depositor defined):AID2097, AID2223, AID489010, AID492950]; assay type: functional
T3 sequence (P9WHJ3 whole entry): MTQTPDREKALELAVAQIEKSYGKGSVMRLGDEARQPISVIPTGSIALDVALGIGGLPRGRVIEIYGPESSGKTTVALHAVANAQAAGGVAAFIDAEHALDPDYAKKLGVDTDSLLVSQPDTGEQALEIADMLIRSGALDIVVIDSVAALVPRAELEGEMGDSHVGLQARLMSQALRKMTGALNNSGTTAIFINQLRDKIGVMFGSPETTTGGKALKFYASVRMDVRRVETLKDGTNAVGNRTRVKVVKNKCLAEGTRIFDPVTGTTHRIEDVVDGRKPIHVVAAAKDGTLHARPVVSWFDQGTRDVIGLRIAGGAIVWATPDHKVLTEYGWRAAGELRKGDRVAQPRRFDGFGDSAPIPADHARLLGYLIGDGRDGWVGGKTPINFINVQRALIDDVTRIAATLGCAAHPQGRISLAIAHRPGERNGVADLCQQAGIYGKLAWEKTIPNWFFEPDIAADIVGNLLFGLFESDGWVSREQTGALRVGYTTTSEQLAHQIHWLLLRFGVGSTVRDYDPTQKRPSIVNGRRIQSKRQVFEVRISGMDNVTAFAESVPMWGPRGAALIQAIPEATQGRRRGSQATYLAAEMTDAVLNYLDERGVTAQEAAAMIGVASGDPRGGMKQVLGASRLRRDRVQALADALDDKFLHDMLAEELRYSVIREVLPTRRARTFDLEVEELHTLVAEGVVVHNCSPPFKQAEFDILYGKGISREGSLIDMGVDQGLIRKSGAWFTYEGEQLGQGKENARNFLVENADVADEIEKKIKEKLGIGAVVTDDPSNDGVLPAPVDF

[5] = target: T4, Short transient receptor potential channel 4 (Mus musculus, UniProt Q9QUQ5); experiment: mouse TRPC4 channel activators, dose response, cell-based, HEK293 TRPC4/mu-opioid, Fluo-4 calcium (AID 434937); assay type: functional
T4 sequence (Q9QUQ5 whole entry): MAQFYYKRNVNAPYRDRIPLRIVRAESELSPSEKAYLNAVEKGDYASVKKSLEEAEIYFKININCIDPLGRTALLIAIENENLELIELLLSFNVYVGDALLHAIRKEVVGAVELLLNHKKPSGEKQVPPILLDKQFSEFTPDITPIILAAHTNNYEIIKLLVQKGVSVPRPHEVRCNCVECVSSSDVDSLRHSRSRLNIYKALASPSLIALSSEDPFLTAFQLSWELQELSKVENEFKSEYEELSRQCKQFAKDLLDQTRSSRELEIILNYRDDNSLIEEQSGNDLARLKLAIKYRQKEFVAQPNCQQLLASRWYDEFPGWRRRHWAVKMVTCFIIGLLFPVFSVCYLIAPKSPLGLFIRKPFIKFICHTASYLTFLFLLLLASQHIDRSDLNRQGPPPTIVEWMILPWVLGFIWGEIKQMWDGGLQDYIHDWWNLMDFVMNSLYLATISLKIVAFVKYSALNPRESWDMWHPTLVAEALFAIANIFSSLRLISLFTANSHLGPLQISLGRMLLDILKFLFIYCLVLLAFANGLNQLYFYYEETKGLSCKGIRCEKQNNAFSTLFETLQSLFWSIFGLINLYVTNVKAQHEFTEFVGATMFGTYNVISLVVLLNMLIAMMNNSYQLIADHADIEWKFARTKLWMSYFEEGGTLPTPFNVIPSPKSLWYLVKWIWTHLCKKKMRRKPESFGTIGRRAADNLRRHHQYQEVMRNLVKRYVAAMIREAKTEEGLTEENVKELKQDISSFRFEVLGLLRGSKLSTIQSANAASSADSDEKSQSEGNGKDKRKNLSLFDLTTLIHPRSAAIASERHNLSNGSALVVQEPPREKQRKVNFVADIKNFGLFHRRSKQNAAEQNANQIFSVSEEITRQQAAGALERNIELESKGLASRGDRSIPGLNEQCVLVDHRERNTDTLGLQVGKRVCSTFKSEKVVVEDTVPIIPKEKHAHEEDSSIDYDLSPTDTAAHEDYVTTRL

[6] = target: T5, Tyrosine-protein phosphatase non-receptor type 22 (Homo sapiens, UniProt Q9Y2R2); assay type: functional
T5 sequence (Q9Y2R2 whole entry): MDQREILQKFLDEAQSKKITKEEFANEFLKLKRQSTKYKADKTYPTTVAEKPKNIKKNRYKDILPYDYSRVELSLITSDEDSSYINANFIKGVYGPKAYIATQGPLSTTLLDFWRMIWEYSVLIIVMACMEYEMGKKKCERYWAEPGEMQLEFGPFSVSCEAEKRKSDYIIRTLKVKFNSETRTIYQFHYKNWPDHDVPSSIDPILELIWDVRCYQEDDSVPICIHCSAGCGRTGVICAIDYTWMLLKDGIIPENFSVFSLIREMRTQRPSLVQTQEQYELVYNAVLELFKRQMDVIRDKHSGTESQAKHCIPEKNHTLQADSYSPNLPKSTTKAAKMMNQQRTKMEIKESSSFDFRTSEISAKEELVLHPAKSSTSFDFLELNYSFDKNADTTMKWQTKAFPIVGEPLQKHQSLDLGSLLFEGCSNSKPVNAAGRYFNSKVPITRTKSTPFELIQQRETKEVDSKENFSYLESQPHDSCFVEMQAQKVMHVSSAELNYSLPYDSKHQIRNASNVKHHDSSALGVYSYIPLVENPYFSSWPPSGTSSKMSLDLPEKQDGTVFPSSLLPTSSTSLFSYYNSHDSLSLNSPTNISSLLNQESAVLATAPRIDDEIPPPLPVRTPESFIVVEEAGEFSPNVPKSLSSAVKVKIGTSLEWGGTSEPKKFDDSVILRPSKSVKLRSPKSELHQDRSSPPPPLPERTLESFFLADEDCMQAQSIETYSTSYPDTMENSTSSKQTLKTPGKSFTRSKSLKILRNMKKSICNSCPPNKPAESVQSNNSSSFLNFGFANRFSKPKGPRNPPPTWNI

[7] = target: T6, Tyrosine-protein phosphatase non-receptor type 7 (Homo sapiens, UniProt P35236); assay type: functional
T6 sequence (P35236 whole entry): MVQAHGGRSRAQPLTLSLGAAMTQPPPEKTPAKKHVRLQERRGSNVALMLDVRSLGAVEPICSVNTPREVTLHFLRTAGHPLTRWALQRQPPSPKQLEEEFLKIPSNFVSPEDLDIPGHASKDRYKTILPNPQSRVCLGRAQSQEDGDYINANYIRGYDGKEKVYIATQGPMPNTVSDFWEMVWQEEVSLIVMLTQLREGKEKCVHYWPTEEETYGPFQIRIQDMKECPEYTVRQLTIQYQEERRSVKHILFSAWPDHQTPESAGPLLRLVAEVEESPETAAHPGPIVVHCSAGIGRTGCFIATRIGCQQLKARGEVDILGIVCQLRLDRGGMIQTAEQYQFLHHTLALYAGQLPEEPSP

[8] = target: T5, Tyrosine-protein phosphatase non-receptor type 22; assay type: functional; remark: listed apart in the source
[9] = target: Genome polyprotein (dengue virus type 2, UniProt P29990); experiment: Dengue-2 NS5 methyltransferase inhibitors, primary screen, biochemical, confirmation dose response (AID 588689); assay type: functional
Genome polyprotein, sequence (P29990 2492-3391 limits assumed): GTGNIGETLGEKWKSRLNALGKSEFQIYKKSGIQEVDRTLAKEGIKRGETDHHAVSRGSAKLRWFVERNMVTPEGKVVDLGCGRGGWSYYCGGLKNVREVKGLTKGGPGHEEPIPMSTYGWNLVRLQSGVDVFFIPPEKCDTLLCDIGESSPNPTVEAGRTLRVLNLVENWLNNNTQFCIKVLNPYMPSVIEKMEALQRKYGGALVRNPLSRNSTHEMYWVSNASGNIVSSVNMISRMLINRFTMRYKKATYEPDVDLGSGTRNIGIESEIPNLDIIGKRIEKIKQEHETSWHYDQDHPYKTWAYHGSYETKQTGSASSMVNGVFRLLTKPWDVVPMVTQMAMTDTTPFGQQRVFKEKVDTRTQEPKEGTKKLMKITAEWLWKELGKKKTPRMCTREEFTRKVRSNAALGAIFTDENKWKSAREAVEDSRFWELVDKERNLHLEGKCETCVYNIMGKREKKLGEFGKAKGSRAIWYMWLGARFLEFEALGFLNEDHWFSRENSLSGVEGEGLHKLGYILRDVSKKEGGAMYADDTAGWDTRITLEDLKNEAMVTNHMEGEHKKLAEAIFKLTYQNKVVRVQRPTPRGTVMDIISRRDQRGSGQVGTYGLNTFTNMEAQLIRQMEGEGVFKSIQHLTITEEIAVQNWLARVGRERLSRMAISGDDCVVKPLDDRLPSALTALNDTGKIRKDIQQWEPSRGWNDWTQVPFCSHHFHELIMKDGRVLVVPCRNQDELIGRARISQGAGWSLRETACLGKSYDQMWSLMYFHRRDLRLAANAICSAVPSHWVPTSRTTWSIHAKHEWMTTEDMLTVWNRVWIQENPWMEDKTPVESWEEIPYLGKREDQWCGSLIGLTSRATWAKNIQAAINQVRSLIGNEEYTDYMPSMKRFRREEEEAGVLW

[10] = target: SUMO-activating enzyme (Homo sapiens, UniProt Q9UBT2); experiment: SUMOylation inhibitor hit validation, confirmation, SUMOylation inhibitor project, biochemical, AlphaScreen (AID 2018); assay type: functional
SUMO-activating enzyme, sequence (Q9UBE0 whole entry): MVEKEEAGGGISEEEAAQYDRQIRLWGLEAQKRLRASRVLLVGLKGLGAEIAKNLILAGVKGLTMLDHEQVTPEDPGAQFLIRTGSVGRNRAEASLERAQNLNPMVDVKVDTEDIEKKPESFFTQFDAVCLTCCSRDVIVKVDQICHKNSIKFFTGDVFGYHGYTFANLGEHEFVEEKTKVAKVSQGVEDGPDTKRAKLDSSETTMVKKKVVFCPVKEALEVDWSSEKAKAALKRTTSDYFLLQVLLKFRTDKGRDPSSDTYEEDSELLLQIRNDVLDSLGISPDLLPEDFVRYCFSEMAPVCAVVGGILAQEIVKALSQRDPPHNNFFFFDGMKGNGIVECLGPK
SUMO-activating enzyme, sequence (Q9UBT2 whole entry): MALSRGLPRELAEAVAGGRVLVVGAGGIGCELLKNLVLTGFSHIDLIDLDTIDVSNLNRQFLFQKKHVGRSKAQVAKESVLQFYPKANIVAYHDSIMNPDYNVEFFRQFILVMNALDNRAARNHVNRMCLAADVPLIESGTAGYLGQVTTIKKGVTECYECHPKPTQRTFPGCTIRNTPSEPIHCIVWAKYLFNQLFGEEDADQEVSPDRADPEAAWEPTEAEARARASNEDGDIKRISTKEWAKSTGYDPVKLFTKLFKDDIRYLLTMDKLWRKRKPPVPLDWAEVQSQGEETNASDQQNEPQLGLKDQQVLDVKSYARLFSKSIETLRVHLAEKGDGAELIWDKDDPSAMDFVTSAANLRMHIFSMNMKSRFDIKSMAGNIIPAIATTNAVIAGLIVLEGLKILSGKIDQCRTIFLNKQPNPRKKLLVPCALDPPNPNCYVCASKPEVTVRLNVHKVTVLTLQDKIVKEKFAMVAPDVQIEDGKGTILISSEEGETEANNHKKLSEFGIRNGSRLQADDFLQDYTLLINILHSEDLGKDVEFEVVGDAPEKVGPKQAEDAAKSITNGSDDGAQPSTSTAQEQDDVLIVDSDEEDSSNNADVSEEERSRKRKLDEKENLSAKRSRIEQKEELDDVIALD

[11] = test system: H9c2; experiment: cells; assay type: functional, cell-based; conditions: Rattus norvegicus, H9c2, Myocardium;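 also: confirmatory concentration-response retest of ultra-high-throughput screening hits for modulation of myocardial damage; cell death induced by hydrogen peroxide oxidative stress; compound pretreatment for 60 min then peroxide exposure for 2 h; potency is for protecting the cells against peroxide damage rather than for killing them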
[12] = target: Glyceraldehyde-3-phosphate dehydrogenase (Homo sapiens, UniProt P04406)
Glyceraldehyde-3-phosphate dehydrogenase, sequence (P04406 whole entry): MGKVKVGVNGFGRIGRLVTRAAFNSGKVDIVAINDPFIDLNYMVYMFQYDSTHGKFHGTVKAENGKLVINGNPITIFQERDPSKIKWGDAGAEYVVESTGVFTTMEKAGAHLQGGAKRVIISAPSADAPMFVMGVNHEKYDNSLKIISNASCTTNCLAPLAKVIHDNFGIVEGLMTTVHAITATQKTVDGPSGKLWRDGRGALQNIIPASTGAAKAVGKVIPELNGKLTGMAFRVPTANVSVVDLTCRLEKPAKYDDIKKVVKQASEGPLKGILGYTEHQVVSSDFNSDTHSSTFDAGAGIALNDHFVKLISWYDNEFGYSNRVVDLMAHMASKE

[13] = target: T7, Alkaline phosphatase, tissue-nonspecific isozyme (Homo sapiens, UniProt P05186); experiment: human TNAP enzyme inhibitors, SAR follow-up, biochemical, luminescent, dose response (AID 1056)
T7 sequence (P05186 whole entry): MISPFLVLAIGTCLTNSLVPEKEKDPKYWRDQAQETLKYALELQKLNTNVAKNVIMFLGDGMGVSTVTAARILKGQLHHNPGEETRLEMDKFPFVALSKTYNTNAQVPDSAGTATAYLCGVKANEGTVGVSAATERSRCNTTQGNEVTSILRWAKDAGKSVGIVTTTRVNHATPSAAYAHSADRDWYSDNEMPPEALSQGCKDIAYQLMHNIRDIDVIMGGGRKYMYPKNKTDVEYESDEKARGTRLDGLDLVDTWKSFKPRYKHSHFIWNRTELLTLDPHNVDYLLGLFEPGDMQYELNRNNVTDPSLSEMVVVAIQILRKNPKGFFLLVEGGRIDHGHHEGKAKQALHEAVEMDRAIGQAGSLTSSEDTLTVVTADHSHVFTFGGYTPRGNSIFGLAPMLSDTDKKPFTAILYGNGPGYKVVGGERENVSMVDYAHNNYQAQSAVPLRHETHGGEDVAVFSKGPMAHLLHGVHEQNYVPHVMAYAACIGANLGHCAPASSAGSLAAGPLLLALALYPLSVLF

[14] = target: T4, Short transient receptor potential channel 4; experiment: mouse TRPC4 channel inhibitors, dose response, cell-based, HEK293 TRPC4/mu-opioid, Fluo-4 calcium (AID 434942); assay type: functional;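 also: potency of inhibitors blocking the TRPC4 calcium response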

CCSC1(SCC)N=C(N)C2(C#N)C(c3ccc(F)cc3)C12C#N (stereo not given)
AC50 [1]: 6.54 µM (active)
AC50 [2]: 14 µM (active)
EC50 [3]: 1.86 µM (active)
EC50 [4]: 12.5 µM (active)

CC1CCCN(CCCNC(=O)c2ccc3c(c2)N(Cc2ccccc2F)C(=O)c2ccccc2S3(=O)=O)C1 (stereo not given)
EC50 [5]: 0.944 µM (active)

CCCOC(=O)c1c(-c2ccc(C)cc2C)csc1NC(=O)C1C2CCC(O2)C1C(=O)O (stereo not given)
IC50 [6]: > 79.4 µM (inactive)
IC50 [7]: > 79.4 µM (inactive)
IC50 [8]: > 79.4 µM (inactive)
IC50 [9]: 55 µM (active)

CN(C)C1(CNC(=O)c2ccc(Cl)c(S(=O)(=O)NCc3ccco3)c2)CCCCC1
EC50 [5]: 0.119 µM (active)

Nc1c(C(=O)N/N=C/c2cccnc2)oc2nc(-c3ccco3)cc(-c3ccco3)c12
IC50 [10]: 8.88 µM (active)
IC50 [11]: > 79 µM (inactive)

Cn1nc(-c2ccc(F)cc2)cc1C(=O)O
IC50 [12]: > 100 µM (not active)
IC50 [13]: > 100 µM (inactive)

O=C1c2ccccc2C(=O)N1c1nnc(-c2ccc(Cl)cc2)[nH]1
IC50 [12]: > 100 µM (not active)
IC50 [13]: 2.49 µM (active)

C/C=C(\C)CN1CCC(n2nccc2NC(=O)CCc2ccccc2)CC1
EC50 [14]: 0.299 µM (active)
EC50 [5]: 0.267 µM (active)

COc1cccc(Cc2nnc(N3C(=O)[C@H]4CCCC[C@H]4C3=O)[nH]2)c1
IC50 [12]: > 100 µM (not active)
IC50 [13]: 1.63 µM (active)

From ChEMBL document CHEMBL1201862, “PubChem BioAssay data set” (2004)
